Measurements reported in publication PMC8665362, “Identification of small-molecule allosteric modulators that act as enhancers/disrupters of rhodopsin oligomerization” (The Journal of Biological Chemistry, 2021).
Marks after values point to notes of the source that are not given here.

Experiments:
[1] = target: rhodopsin (isorhodopsin) dimerization (Homo sapiens, UniProt P08100); test: rhodopsin dimerization BRET assay in HEK293 opsin-Rluc/opsin-Venus cells; format: cell-based; design: expressed in transfected cells; host or cells: HEK293 (human embryonic kidney 293) opsin-Rluc / opsin-Venus cell lines; conditions: HEK293 opsin-Rluc/opsin-Venus cells regenerated with 9-cis-retinal; triplicates; read from Fig. 3B,E
Description: To identify small molecules that target rhodopsin dimerization, a cell-based high-throughput screening (HTS) assay was used to screen a diverse library of 50,000 compounds from Life Chemicals. The human osteosarcoma (U2OS) stable cell line was used, which expresses opsin fused with complimentary subunits of β-galactosidase (β-gal), namely, the enzyme acceptor large β-gal subunit (EA) and the enzyme donor, small subunit of β-gal (PK). Upon rhodopsin self-association in vitro, a competent β-gal was formed and chemiluminescent signal was generated in the presence of β-gal substrate (Fig. 1A). For further validation, the β-gal activity assay was used to counter-screen and rule out false positives, affecting the activity of β-gal without affecting rhodopsin (Fig. 1B) ([34]). In an orthogonal assay, rhodopsin dimerization was assessed using a bioluminescence resonance energy transfer (BRET) assay with human embryonic kidney 293 cells expressing opsin fused with Renilla luciferase and opsin fused with Venus (Fig. 1C) ([35], [36]). To form functional visual pigment, opsin-fused proteins were regenerated with 9-cis-retinal to form so-called isorhodopsin ([37]). We chose 9-cis-retinal over photoreceptor-endogenous 11-cis-retinal because of its availability and the prohibitive cost for HTS assays with the native chromophore. Rhodopsin and isorhodopsin have similar biochemical and spectral properties (see ([38])).
Identified hits from the β-gal complementation assay were subjected to the previously developed BRET assay, using human embryonic kidney 293 opsin–Renilla luciferase and opsin-Venus cell lines ([37]). Cultured cells were diluted to 2 × 10^5 cells/ml in the medium containing 10% fetal bovine serum (Thermo Fisher Scientific) and 1% penicillin-streptomycin (10,000 U/ml; Thermo Fisher Scientific), and 20 μl/well of the cell diluent was dispensed into a white ViewPlate-384 (PerkinElmer). Cells were cultured overnight at 37 °C in 5% CO2, and under a dim red light, cells were treated with 9-cis-retinal at 7.5 μM final concentration. The next day, cells were treated with the identified hit compounds from the β-gal complementation assay at 180 μM down to 2.4 nM concentrations, and 1 μM final concentration of TM5 peptide ([…]-NH2; EZBiolab) serving as the control. On the following day, the culture medium was aspirated and replaced with 90 μl/well of PBS containing pivaloyloxymethyl acetoxycoelenterazine h (Dalton Research Molecules) at 600 μM concentration followed by incubation at 20 °C for 40 min ([35]). Dual luminescence readings at 480 and 530 nm were performed using a SpectraMax L plate reader with the BRET1 filter set (Molecular Devices).

[2] = system: rod photoreceptors of isolated mouse retinas; test: ex vivo ERG of isolated mouse retinas (rod light responses); format: cell-based, mouse (C57BL/6J); conditions: 250 μM compound
Description: We determined the impact of compound #7 (representative disrupter of rhodopsin dimerization) and compound #1 (representative enhancer) on the sensitivity and kinetics of rod light responses, using ex vivo electroretinogram (ERG) analysis of isolated mouse retinas (Experimental procedures). This technique allows robust recordings from intact retinas and is well suited for quantitative investigation of mouse phototransduction ([48], [49], [50], [51], [52], [53]).
Ex vivo ERG recordings were conducted with isolated retinas of C57Bl/6J mice, as described ([41], [62], [63]). Mice were dark-adapted overnight and euthanized by CO2 asphyxiation, and whole retinas were dissected under dim red light. Before recordings, retinas were incubated for 5 h in Ames’ medium (Sigma-Aldrich) inside a light-tight box that was supplied with humidified 95% O2/5% CO2. For control retinas, 0.1% DMSO was added to the incubation medium, and for others, the incubation medium contained either 250 μM F2502-0030 (compound #1) or F5897-0190 (compound #7). These compounds were first dissolved in DMSO at 250 mM concentration, and 0.1% of this stock solution was added to the incubation medium (Ames’ medium). Stock solution was stored at −20 °C and used within a week. After incubation, retinas were placed on the ex vivo ERG specimen holder and perfused with Ames’ medium (saturated with 95% O2/5% CO2) at 1.5 ml/min at 35 °C. Ames’ medium was supplemented with 100 μM BaCl2 and 40 μM DL-AP4 (Tocris Bioscience) to isolate the photoreceptor component of the ERG signal. Responses were recorded to 5 ms flashes of light (630 nm) ranging from 276 to 308,534 photons μm^−2, corresponding to 1 to 1100 photons μm^−2 at 500 nm ([64]). Sensitivity of rod photoreceptors was determined in three ways: (1) sF = peak amplitude of dim flash response divided by flash energy (1 photon μm^−2); (2) SF = sF/Rmax, where Rmax is the maximal response amplitude measured at the plateau from a saturated rod response; (3) I1/2: flash energy required to elicit 50% of the Rmax determined by fitting a Naka-Rushton function to flash energy-amplitude data.

rhodopsin (isorhodopsin) dimerization, sequence (P08100 whole entry, the tested form may be a part): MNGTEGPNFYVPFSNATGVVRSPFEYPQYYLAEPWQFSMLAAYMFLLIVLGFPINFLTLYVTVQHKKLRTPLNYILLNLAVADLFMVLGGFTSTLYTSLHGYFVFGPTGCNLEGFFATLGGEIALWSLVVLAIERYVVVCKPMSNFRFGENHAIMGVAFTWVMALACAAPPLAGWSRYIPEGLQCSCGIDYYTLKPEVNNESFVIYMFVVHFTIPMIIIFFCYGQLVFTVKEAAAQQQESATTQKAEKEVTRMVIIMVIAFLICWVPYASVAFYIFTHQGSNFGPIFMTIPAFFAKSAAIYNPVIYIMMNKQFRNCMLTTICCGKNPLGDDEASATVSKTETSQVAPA

EC50 [1]: 2.34 µM
Rmax ([2]; 5 h incubation, N = 4 retinas): 320 ± 80 ^a μV
half-saturating I1/2 from best-fitting Michaelis–Menten equation to mean normalized amplitudes ([2]; Fig. 5F): 37 photons μm^−2
SF (fractional sensitivity, sF/rmax) ([2]; N = 4): 5.0 ± 0.3 ^a %/photons∙μm^−2
sF (absolute sensitivity) ([2]; N = 4): 13 ± 5 ^a μV/photons∙μm^−2
I1/2 ([2]; from individual retinas, N = 4): 37 ± 2 ^a photons∙μm^−2
tp ([2]; time-to-peak of dim flash (1 photon μm^−2), N = 4): 163 ± 12 ms
SMILES: O=C(CSc1nnc(NC(=O)Cc2ccc(F)cc2)s1)NO [#1]
effect on kinetics of rod light responses [2]: did not substantially affect the kinetics of responses
